{"source": "patent US6214859A", "about": "“Ethylamine derivatives” (Fujimoto Brothers Co., Ltd., priority 1997, dated 2001)", "key": {"human platelet MAO-B": {"target": "T1, human platelet MAO-B (Homo sapiens, UniProt P27338)", "T1 construct": "The suspension was used as enzyme for MAO activity assay in blood platelets; from tissue; host or cells: human blood platelets (frozen, thawed and sonicated platelet rich plasma)", "T1 sequence (P27338 1-520)": "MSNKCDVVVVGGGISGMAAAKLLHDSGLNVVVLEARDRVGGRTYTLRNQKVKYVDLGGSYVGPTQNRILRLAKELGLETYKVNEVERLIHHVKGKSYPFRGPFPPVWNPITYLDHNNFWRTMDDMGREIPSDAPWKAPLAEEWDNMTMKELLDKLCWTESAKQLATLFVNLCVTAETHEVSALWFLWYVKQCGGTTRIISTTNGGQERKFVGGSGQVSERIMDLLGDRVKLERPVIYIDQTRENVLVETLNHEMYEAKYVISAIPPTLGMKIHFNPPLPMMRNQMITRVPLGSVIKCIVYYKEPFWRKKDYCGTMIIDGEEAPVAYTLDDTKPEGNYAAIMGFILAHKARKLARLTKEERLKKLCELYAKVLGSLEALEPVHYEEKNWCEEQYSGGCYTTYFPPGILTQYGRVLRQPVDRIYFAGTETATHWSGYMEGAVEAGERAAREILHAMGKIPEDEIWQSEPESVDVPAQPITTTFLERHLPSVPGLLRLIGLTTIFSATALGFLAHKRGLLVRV", "experiment": "biochemical", "conditions": "10^-5 M; read-out: Inhibition rate of MAO-B", "description": "Human blood added with 3.8% citric acid was centrifuged at 950 rpm for 10 min and platelet rich plasma (PRP) was obtained. The residual blood cell was centrifuged at 3,000 rpm for 10 min and platelet poor plasma (PPP) was obtained. After blood platelets were measured from a part of PRP, PRP and PPP were frozen at -20° C. They were thawed and were sonicated to be dispersed and suspended when MAO activity was measured. The suspension was used as enzyme for MAO activity assay in blood platelets. In addition, almost all of MAO in blood platelets have been known to be B type.\nMAO-B activity was determined according to the method described in Biochem. Pharmacol., 14, 1684-1685 (1965). […] The mixture was incubated at 37° C. for 5 min. After 80 μl of PRP or PPP was added to it, the mixture was incubated at 37° C. for 20 min. Thereafter, 120 μl of substrate (0.33 mg/ml kynuramine dihydrobromide) was added thereto. After incubation at 37° C. for 30 min, 800 μl of 10% trichloroacetic acid were added to stop the reaction and the solution was centrifuged at 3,000 rpm for 10 min. To 1 ml of the supernatant, 2 ml of 1 N NaOH was added and fluorescence of the solution was measured at Ex 312 nm and Em 380 nm. PRP was prepared to 250,000 cell/μl as amounts of blood platelets with […] phosphate buffer solution and 4-hydroxyquinoline was used as standard for measurement."}, "[1]": {"test_system": "monoamine release from synaptosomes", "experiment": "Releasing effect of monoamines in synaptosomes of the rat brain", "conditions": "compound 5×10^-5 M with tyramine 10^-6 M (FIG. 9)", "description": "Synaptosomes were prepared as follows. Fresh striatum (for determination of dopamine) and fresh forebrain (for determination of noradrenaline and serotonin) were removed from listar rats of 8 weeks old (NIPPON S. L. C.). Ten times volumes of ice-cold 0.35 M sucrose (pH 7.4) were added in the brain tissue and homogenized using glass homogenizer with teflon pestle which was revolted by motors. Thereafter the homogenate was centrifuged at 900×g for 10 min at 4° C. and the supernatant was recentrifuged at 11,500×g for 20 min. The pellet was resuspeded in ice-cold buffer. Final concentration of synaptosomes was prepared to 0.6 mg protein/ml. Protein concentration was determined by method described in Journal of Biological Chemistry, 193, 265-275 (1951) and the bovine serum albumin was used as an authentic standard. The release of monoamine from synaptosomes was determined by the following procedure based on the method described in Journal of Pharmacology and Experimental Therapeutics, 241, 27-33 (1987). The solution of 0.6 mg/ml of synaptosomes was preincubated for 5 min at 35° C. under the oxygenated (95% O2 and 5% CO2) condition. Thereafter 25 nM ^3 H-monoamines were added in synaptosomal solution and the solutions were incubated for 5 min at 35° C. […]"}, "D2 receptor": {"target": "D2 receptor", "experiment": "Affinity to D2 receptor", "parameters": "species or system rat", "conditions": "read-out: Affinity to D2 receptor (MIC50; mole concentration for 50% inhibition of binding); 2.0 nM spiperone"}, "α2 receptor": {"target": "α2 receptor", "experiment": "Affinity to α2 receptor", "parameters": "species or system rat", "conditions": "read-out: Affinity to α2 receptor (MIC50; mole concentration for 50% inhibition of binding); 0.7 nM ^3H-rauwolscine"}, "5-HT2 receptor": {"target": "T2, 5-HT2 receptor (Rattus norvegicus, UniProt P14842)", "T2 construct": "The precipitate was used as the solution of receptor; from tissue; host or cells: rat brain (whole) crude membranes", "T2 sequence (P14842 whole entry)": "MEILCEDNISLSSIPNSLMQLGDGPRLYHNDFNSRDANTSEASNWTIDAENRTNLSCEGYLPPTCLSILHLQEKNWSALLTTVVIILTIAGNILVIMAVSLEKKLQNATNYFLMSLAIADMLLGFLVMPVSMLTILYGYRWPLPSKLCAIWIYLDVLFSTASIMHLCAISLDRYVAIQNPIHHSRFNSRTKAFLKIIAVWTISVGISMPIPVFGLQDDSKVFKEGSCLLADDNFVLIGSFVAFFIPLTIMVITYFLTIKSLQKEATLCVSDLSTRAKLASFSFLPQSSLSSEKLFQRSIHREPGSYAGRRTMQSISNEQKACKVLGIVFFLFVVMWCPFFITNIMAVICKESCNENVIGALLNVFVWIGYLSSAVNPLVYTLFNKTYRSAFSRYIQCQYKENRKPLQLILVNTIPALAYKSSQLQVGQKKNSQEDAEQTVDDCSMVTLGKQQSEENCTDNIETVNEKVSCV", "experiment": "Affinity to 5-HT2 receptor", "assay_type": "binding"}, "D1 receptor": {"target": "T3, D1 receptor (Rattus norvegicus, UniProt P18901)", "T3 construct": "The precipitate was used as the solution of receptor; from tissue; host or cells: rat brain (whole) crude membranes", "T3 sequence (P18901 whole entry)": "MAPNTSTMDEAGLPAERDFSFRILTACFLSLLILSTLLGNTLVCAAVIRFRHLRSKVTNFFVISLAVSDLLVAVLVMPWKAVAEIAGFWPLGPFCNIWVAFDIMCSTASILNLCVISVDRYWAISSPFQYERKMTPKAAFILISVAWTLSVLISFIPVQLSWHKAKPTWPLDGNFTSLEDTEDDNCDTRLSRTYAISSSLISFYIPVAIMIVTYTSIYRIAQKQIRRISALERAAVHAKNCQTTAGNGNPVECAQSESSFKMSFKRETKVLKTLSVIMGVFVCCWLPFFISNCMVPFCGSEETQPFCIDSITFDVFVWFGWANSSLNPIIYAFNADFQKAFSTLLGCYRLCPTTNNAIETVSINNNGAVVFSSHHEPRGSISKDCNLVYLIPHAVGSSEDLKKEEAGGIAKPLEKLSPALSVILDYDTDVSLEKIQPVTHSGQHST", "experiment": "Affinity to D1 receptor", "assay_type": "binding"}}, "data": [{"smiles": "CCCNC(CCC)Cc1ccc2c(c1)OCO2.Cl", "note": "(stereo not shown) [Compound No. 27, 1-(1,3-Benzodioxol-5-yl)-2-propylaminopentane Hydrochloride]", "values": [{"measurement": "inhibition at 10 µM", "setting": "human platelet MAO-B", "result": 34, "unit": "%"}, {"measurement": "antagonism against the effect of tyramine", "setting": "[1]", "result": "Tyramine antagonistic property"}]}, {"smiles": "CCCNC(CCC)Cc1c[nH]c2ccccc12.Cl", "note": "(stereo not shown) [Compound No. 20, 1-(Indol-3-yl)-2-propylaminopentane Hydrochloride]", "values": [{"measurement": "IC50", "setting": "D2 receptor", "result": "> 10", "unit": "µM"}, {"measurement": "inhibition at 10 µM", "setting": "human platelet MAO-B", "result": 6.4, "unit": "%"}, {"measurement": "IC50", "setting": "α2 receptor", "result": 0.9, "unit": "µM"}, {"measurement": "IC50", "setting": "5-HT2 receptor", "result": "> 10", "unit": "µM"}, {"measurement": "IC50", "setting": "D1 receptor", "result": "> 10", "unit": "µM"}]}]}
